Assay results as given in US4620871A (priority 1980, dated 1986).

Key:
Pannonia vine variety = assay: Berry yield and sugar content of vine, Pannonia (Example 33); type: in vivo; settings: for Berry yield: 3 x 2 kg/ha, control 216; for Sugar content: control 13.0; for Sugar yield: control 28.08
Description: (§1) Vine stands were sprayed with the compositions according to the invention to examine their effects exerted on the berry yield and sugar content. The compositions, diluted with water, were sprayed three times onto the plants. The first treatment was performed prior to flowering, the second one three weeks later, and the third one six weeks after the first one. The dose applied was 2 kg/ha in each of the treatments.
(§2) Comparative tests were also performed with commonly used growth regulating compositions, i.e. CCC (chlorocholine chloride), Ethrel (or Etefon; 2-chloroethylphosphonic acid) and Nevirol (N-phenyl-phthalaiminic acid). The results were compared to those observed with the untreated controls.
(§3) Two vine varieties, Pannonia and Egri leanyka, were involved in the tests.

[1] = test system: Egri leanyka vine variety; assay: Berry yield and sugar content of vine, Egri leanyka (Example 33); type: in vivo; settings: for Berry yield: 3 x 2 kg/ha, control 151.15; for Sugar content: control 16.7; for Sugar yield: control 18.93
Description: as §1, §2, §3

Pinto beans = assay: Preservation of chlorophyll in Pinto beans (Example 17); type: in vivo; settings: zeatin 20 ppm, kinetin/benzyladenine 30 ppm, others 200 ppm; for Extinction: 665 mμ, 200 mg fresh weight, 2 weeks
Description: Endogeneous and synthetic cytokinins were applied as comparative substances. Solutions with varying concentrations, but always more dilute than 10^-4 moles, were applied in the tests.
The tests were performed on Pinto beans. The plants were treated with an endogenous cytokinin (zeatine), synthetic cytokinins (kinetin, benzyladenine) or cytokinin-like compounds, respectively, and the chlorophyll content of the leaves was determined 2 weeks after the treatment by measuring the extinction of the extract of the leaves at 665 mμ.

leaves of Pinto bean [2] = assay: Protein synthesis, glycine-2-14C incorporation in Pinto bean leaves (Example 19); settings: 18 hours, zeatin 20 ppm, kinetin/benzyladenine 30 ppm, others 200 ppm; for Radioactivity of the TCA-insoluble fraction: control 3.17
Description: The tests were performed on leaves of Pinto bean. The leaf segments were treated with an endogeneous cytokinin (zeatin), synthetic cytokinins (kinetin, benzyladenine) or with the compositions according to the invention, respectively, by floating the leaf segments on the solution of the test substance for 18 hours. Thereafter the leaf segments were exposed to a labelled amino acid (glycine-2-^14 C) for 3 hours, and the incorporation of the amino acid was determined by radiometry.

leaves of Pinto beans = assay: Stimulation of carbon dioxide fixation, Pinto beans (Example 21); settings: for Radioactivity A: A = in the light, control 2.14; for Radioactivity A / Radioactivity B / Radioactivity C / Stimulation: zeatin 20, kinetin/benzyladenine 30, others 200 ppm; for Radioactivity B: B = in the dark, control 0.18; for Radioactivity C: C = photosynthetic, control 2.32
Description: The tests were performed on leaves of Pinto beans. The leaf segments were treated with an endogeneous cytokinin (zeatin), synthetic cytokinins (kinetin, benzyladenine) or with the compositions according to the invention, respectively, by floating the leaf segments on the solution of the test substance for 18 hours, thereafter the leaf segments were exposed to labelled carbon dioxide (activity: 100 μCi/5000 ml of ^14 CO2) for 0.5 hours.

leaves of Pinto bean [3] = assay: Stimulation of photolytic activity, HTO, Pinto bean (Example 23); settings: 18 hours, zeatin 20, kinetin/benzyladenine 30, others 200 ppm; for Photolytic activity: control 7.64
Description: The stimulating effects of an endogeneous cytokinin (zeatin), synthetic cytokinins (kinetin, benzyladenine) and the cytokinin-like regulators according to the invention exerted on the photolytic activity connected to the decomposition of HTO were examined on leaves of Pinto bean. The leaf discs were floated for 18 hours on solutions of the substances under examination, and then exposed to a radioactivity of 200 μCi/100 ml for one hour to effect photolysis of HTO.

Pinto bean = assay: Stimulation of membrane activity (nitrate uptake), Pinto bean (Example 25); type: in vivo; settings: zeatin 20, kinetin/benzyladenine 30, others 200 ppm; for Protein nitrogen / Total nitrogen: 2 weeks; for Protein nitrogen: control 2.4; for Total nitrogen: control 3.8; for Protein nitrogen content in % of the total nitrogen content: control 63
Description: The tests were performed on Pinto bean. The plants were treated with solutions of an endogeneous cytokinin (zeatin), synthetic cytokinins and membraneactive regulators according to the invention, respectively, and the leaves of the plants were analyzed 2 weeks after the treatment.

Tobacco callus = assay: Growth of tobacco callus vs kinetin (Example 14); type: cell-based; settings: 2 ppm active agent; for Dry weight of the callus / Speed of growth: kinetin 1 ppm; for activity at 2 ppm: Nicotiana tabacum, 504 h, kinetin 1 ppm = 100, read-out: Speed of growth, Index %
Description: An untreated culture medium served as control. Tobacco callus was grown on the treated and untreated culture media (incubation period: 3 weeks), and the daily growth, the increase in cell number and the frequency of mitosis were measured according to the method of Skoog.
The test described in Example 13 was repeated so that a culture medium containing 1 ppm of kinetin was used as control, and the compositions according to the invention were applied in amounts corresponding to 2 ppm of active agent.

[4] = test system: callus isolated from Datura innoxia Mill. roots; assay: Growth of callus isolated from Datura innoxia Mill. roots (Example 15); type: cell-based; settings: with kinetin (2 ppm)
Soybean = assay: Total and protein nitrogen content of soybean (Example 39); type: in vivo; settings: for Protein nitrogen content: control 1.9; for Total nitrogen content: control 2.6; for Protein nitrogen content, increase / Total nitrogen content, increase: in vivo
Text: The effects of 1,4-dihydroxyphthalazine and salts thereof exerted on the total nitrogen content and protein nitrogen content of soybean were examined as described in Example 27. The plants were sprayed with the compositions according to the invention at the beginning of the flowering of the apical cluster.

| Compound | Sugar content, increase (Pannonia vine variety) | Berry yield (Pannonia vine variety) | Sugar content (Pannonia vine variety) | Sugar yield (Pannonia vine variety) | Berry yield [1] | Sugar content [1] | Sugar yield [1] | Extinction (Pinto beans) | Promotion (Pinto beans) | Radioactivity of the TCA-insoluble fraction (leaves of Pinto bean [2]) | Radioactivity A (leaves of Pinto beans) | Radioactivity B (leaves of Pinto beans) | Radioactivity C (leaves of Pinto beans) | Stimulation (leaves of Pinto beans) | Stimulation (leaves of Pinto bean [3]) | Photolytic activity (leaves of Pinto bean [3]) | Protein nitrogen (Pinto bean) | Total nitrogen (Pinto bean) | Protein nitrogen, stimulation (Pinto bean) | Protein nitrogen content in % of the total nitrogen content (Pinto bean) | also measured |
| --- | --- | --- | --- | --- | --- | --- | --- | --- | --- | --- | --- | --- | --- | --- | --- | --- | --- | --- | --- | --- | --- |
| O=C(O)c1ccccc1C(=O)Nc1ccccc1 [Nevirol, N-phenyl-phthalaiminic acid] | 18.4% | 238 q/ha | 15.4% | 36.52 q/ha | 169.22 q/ha | 16.4% | 20.81 q/ha | – | – | – | – | – | – | – | – | – | – | – | – | – | Sugar yield, increase (Pannonia vine variety): 30%; Berry yield, increase [1]: 11.9%; Sugar yield, increase [1]: 9.9% |
| c1ccc(CNc2ncnc3[nH]cnc23)cc1 [Benzyladenine, benzyladenine] | – | – | – | – | – | – | – | 1.229 | 83.1% | 5.92 1000 dpm/200 mg fresh weight | 4.87 dpm/200 mg fresh weight | 0.41 dpm/200 mg fresh weight | 5.28 dpm/200 mg fresh weight | 128.0% | 125% | 17.21 dpm/mg of glucose | 2.8 % of dry weight | 3.8 % of dry weight | 16.6% | 73% | Stimulation (leaves of Pinto bean [2]): 87.0% |
| C/C(=C\CNc1ncnc2[nH]cnc12)CO [Zeatin] | – | – | – | – | – | – | – | 1.283 | 91.3% | 6.18 1000 dpm/200 mg fresh weight | 5.12 dpm/200 mg fresh weight | 0.46 dpm/200 mg fresh weight | 5.58 dpm/200 mg fresh weight | 140.8% | 108% | 15.94 dpm/mg of glucose | 2.8 % of dry weight | 3.8 % of dry weight | 16.6% | 73% | activation at 20 ppm (leaves of Pinto bean [2]; read-out: Stimulation): 95.1%; stimulation of CO2 fixation, comparison in words (leaves of Pinto beans): the most potent stimulating agent |
| N=C(N)N.Oc1nnc(O)c2ccccc12 [1,4-Dihydroxy-phthalazine monoguanidine salt] | – | – | – | – | – | – | – | – | – | – | 3.75 dpm/200 mg fresh weight | 0.28 dpm/200 mg fresh weight | 3.47 dpm/200 mg fresh weight | 50.7% | – | – | – | – | – | – | – |
| C[N+](C)(C)CCCl.[Cl-] [CCC, 2-chloroethyltrimethyl-ammonium chloride] | 23.0% | 175 q/ha | 16.0% | 28.0 q/ha | 144.61 q/ha | 17.0% | 18.44 q/ha | – | – | – | – | – | – | – | – | – | – | – | – | – | – |
| O=P(O)(O)CCCl [Ethrel, 2-chloroethylphosphonic acid] | 7.5% | 194 q/ha | 14.0% | 27.2 q/ha | 164.61 q/ha | 15.7% | 19.38 q/ha | – | – | – | – | – | – | – | – | – | – | – | – | – | Berry yield, increase [1]: 8.9%; Sugar yield, increase [1]: 2.3% |
| CCCn1cnc2ccccc21 [N--(n-Propyl)-benzimidazolium chloride] | – | – | – | – | – | – | – | – | – | – | – | – | – | – | – | – | – | – | – | – | Dry weight of the callus (Tobacco callus): 194.09 mg; Speed of growth (Tobacco callus): 116.89; activity at 2 ppm (Tobacco callus): 119% |
| c1coc(CNc2ncnc3[nH]cnc23)c1 [Kinetin] | – | – | – | – | – | – | – | 1.120 | 66.0% | 5.36 1000 dpm/200 mg fresh weight | 4.15 dpm/200 mg fresh weight | 0.37 dpm/200 mg fresh weight | 4.52 dpm/200 mg fresh weight | 95.2% | 82% | 13.96 dpm/mg of glucose | 2.8 % of dry weight | 3.8 % of dry weight | 16.6% | 73% | Dry weight of the callus (Tobacco callus): 174.11 mg; Speed of growth (Tobacco callus): 97.17; activity at 2 ppm (Tobacco callus): 100%; Dry substance [4]: 3.52%; Dry weight of the callus [4]: 175.06 mg; Fresh weight of the callus [4]: 4.9694 g; Growth, dry weight [4]: 15.56; Growth, fresh weight [4]: 15.56; Speed of growth [4]: 98.28 mg/day; Stimulation (leaves of Pinto bean [2]): 69.4% |
| NN.Oc1nnc(O)c2ccccc12 [1,4-Dihydroxyphthalazine hydrazine salt] | – | – | – | – | – | – | – | – | – | – | – | – | – | – | – | – | – | – | – | – | Protein nitrogen content (Soybean): 3.1 % of dry substance; Total nitrogen content (Soybean): 3.7 % of dry substance; Protein nitrogen content, increase (Soybean): 63.2%; Total nitrogen content, increase (Soybean): 42.4% |
| NN.NN.Oc1nnc(O)c2ccccc12 [1,4-Dihydroxyphthalazine dihydrazine salt] | – | – | – | – | – | – | – | – | – | – | – | – | – | – | – | – | – | – | – | – | Protein nitrogen content (Soybean): 3.6 % of dry substance; Total nitrogen content (Soybean): 3.9 % of dry substance; Protein nitrogen content, increase (Soybean): 89.5%; Total nitrogen content, increase (Soybean): 50.0% |
